Assays:
[1] = molecular target: IMP-1 (Serratia marcescens, UniProt P52699); test: Enzyme activity: determination of IC50, fluorescence assay with CCF2-FA substrate; format: biochemical; settings: IMP-1 enzyme 2 pM, CCF2-FA 1.25 μM, 2 hours at 25° C.; read-out: IMP1 IC50
Procedure, shortened: (§1)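 Read-out: fluorescence, ex 405 nm / em 460 nm, after 2 h at 25° C with 1.25 μM CCF2-FA. Buffer 100 mM KH2PO4 pH 7, 0.005% Tween-20, 10 μM ZnSO4; enzyme 1 pM NDM-1, 2 pM IMP-1, 30 pM VIM-1. IC50 by 4-parameter fit.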

[2] = molecular target: NDM-1 (Klebsiella pneumoniae, UniProt C7C422); test: as above; format: biochemical; settings: NDM-1 enzyme 1 pM, CCF2-FA 1.25 μM, 2 hours at 25° C.; read-out: NDM1 IC50
Procedure, shortened: as §1

[3] = molecular target: VIM-1 (Pseudomonas aeruginosa, UniProt A0A0F7KYQ8); test: as above; format: biochemical; settings: VIM-1 enzyme 30 pM, CCF2-FA 1.25 μM, 2 hours at 25° C.; read-out: VIM1 IC50
Procedure, shortened: as §1

[4] = system: Escherichia coli expressing NDM-1 (CLB30016); test: Antibiotic potentiation activity: synergistic concentration (MITC95) with imipenem, growth by OD600; format: cell-based; settings: E. coli CLB30016 (NDM-1), 95% inhibition of growth
Procedure, shortened: (§2)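 Strains grown overnight at 35° C, resuspended in saline, diluted 1:100 into 1.1×CAMHB; imipenem at 1 μg/ml or 4 μg/ml with test compound 200 μM to 0.195 μM. Incubated 22 hours to 24 hours at 35° C, OD600 read; MITC95 is lowest compound concentration inhibiting 95% of growth.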

[5] = system: Klebsiella pneumoniae expressing VIM-1 (IHMA599644); test: as above; format: cell-based; settings: K. pneumoniae IHMA599644 (VIM-1), 95% inhibition of growth
Procedure, shortened: as §2

[6] = system: Serratia marcescens expressing IMP-1 (CL5741); test: as above; format: cell-based; settings: S. marcescens CL5741 (IMP-1), 95% inhibition of growth
Procedure, shortened: as §2

Sequence of IMP-1 (P52699 19-246, looked up, species assumed): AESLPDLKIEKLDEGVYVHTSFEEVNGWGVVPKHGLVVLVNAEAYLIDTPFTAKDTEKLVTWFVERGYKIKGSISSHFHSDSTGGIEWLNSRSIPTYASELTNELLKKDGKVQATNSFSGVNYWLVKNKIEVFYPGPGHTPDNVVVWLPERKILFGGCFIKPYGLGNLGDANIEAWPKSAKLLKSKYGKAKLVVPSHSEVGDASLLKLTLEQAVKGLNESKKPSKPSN
Sequence of NDM-1 (C7C422 29-270, looked up, species assumed): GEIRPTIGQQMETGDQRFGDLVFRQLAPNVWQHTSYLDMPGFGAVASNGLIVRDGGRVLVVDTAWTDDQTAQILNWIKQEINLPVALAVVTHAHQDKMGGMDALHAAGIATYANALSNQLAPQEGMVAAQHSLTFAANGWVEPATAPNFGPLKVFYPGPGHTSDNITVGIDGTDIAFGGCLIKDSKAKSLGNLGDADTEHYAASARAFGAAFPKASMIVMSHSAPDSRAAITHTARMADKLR

| SMILES | IC50 [1] | IC50 [2] | IC50 [3] | NDM1 EC30016 MITC95 [4] | VIM1 KP599644 MITC95 [5] | IMP1 SM5741 MITC95 [6] |
| --- | --- | --- | --- | --- | --- | --- |
| CCC[C@H](C(=O)O)[C@H](Cc1cccc(N2CCN(C(C)=O)CC2)c1)c1nn[nH]n1 [Example 363, (2S)-2-[(1S)-2-[3-(4-acetylpiperazin-1-yl)phenyl]-1-(2H-tetrazol-5-yl)ethyl]pentanoic acid] | 810 nM | 150 nM | 20 nM | 100 µM | 100 µM | 25 µM |
| CCC[C@H](C(=O)O)[C@H](Cc1cccc(N2CC[C@@H](N)C2)c1)c1nn[nH]n1 [Example 364, (2S)-2-[(1S)-2-{3-[(3R)-3-aminopyrrolidin-1-yl]phenyl}-1-(2H-tetrazol-5-yl)ethyl]pentanoic acid] | 1600 nM | 110 nM | 2.4 nM | 9.4 µM | 12.5 µM | 38 µM |
| CCC[C@H](C(=O)O)[C@H](Cc1cccc(N2CCOCC2)c1)c1nn[nH]n1 [Example 365, (2S)-2-[(1S)-2-(3-morpholin-4-ylphenyl)-1-(2H-tetrazol-5-yl)ethyl]pentanoic acid] | 1500 nM | 82 nM | 20 nM | 38 µM | 50 µM | 38 µM |
| CCC[C@H](C(=O)O)[C@H](Cc1cccc(N2CCC[C@H](N)C2)c1)c1nn[nH]n1 [Example 366, (2S)-2-[(1S)-2-{3-[(3S)-3-aminopiperidin-1-yl]phenyl}-1-(2H-tetrazol-5-yl)ethyl]pentanoic acid] | 8600 nM | 870 nM | 13 nM | 50 µM | 25 µM | 150 µM |
| CCC[C@H](C(=O)O)[C@H](Cc1cccc(N2CCNC(=O)C2)c1)c1nn[nH]n1 [Example 367, (2S)-2-[(1S)-2-[3-(3-oxopiperazin-1-yl)phenyl]-1-(2H-tetrazol-5-yl)ethyl]pentanoic acid] | > 20000 nM | 1400 nM | 260 nM | >200 µM | >200 µM | >200 µM |
| CCC[C@H](C(=O)O)[C@H](Cc1cccc(N2CCCCC2)c1)c1nn[nH]n1 [Example 368, (2S)-2-[(1S)-2-(3-piperidin-1-ylphenyl)-1-(2H-tetrazol-5-yl)ethyl]pentanoic acid] | 740 nM | 46 nM | 9.7 nM | 25 µM | 50 µM | 37.5 µM |
| CCC[C@H](C(=O)O)[C@H](Cc1cccc(N2CC[C@H](N)C2)c1)c1nn[nH]n1 [Example 369, (2S)-2-[(1S)-2-{3-[(3S)-3-aminopyrrolidin-1-yl]phenyl}-1-(2H-tetrazol-5-yl)ethyl]pentanoic acid] | 2300 nM | 150 nM | 3.2 nM | 12.5 µM | 12.5 µM | 50 µM |
| CCC[C@H](C(=O)O)[C@H](Cc1cccc(N2CCC[C@@H](N)C2)c1)c1nn[nH]n1 [Example 370, (2S)-2-[(1S)-2-{3-[(3R)-3-aminopiperidin-1-yl]phenyl}-1-(2H-tetrazol-5-yl)ethyl]pentanoic acid] | 9000 nM | 870 nM | 6.3 nM | 44 µM | 41 µM | 175 µM |
| CC(C)C[C@H](C(=O)O)[C@H](Cc1ccc(Oc2ccccc2C2CCCN2)nc1)c1nn[nH]n1 (stereo partly drawn) [Example 374, (2S)-4-methyl-2-[(1S)-2-[6-(2-pyrrolidin-2-ylphenoxy)pyridin-3-yl]-1-(2H-tetrazol-5-yl)ethyl]pentanoic acid] | 90 nM | 12 nM | 3 nM | 9.4 µM | 62 µM | 9.4 µM |
| CC(C)C[C@H](C(=O)O)[C@H](Cc1ccc(Oc2ccccc2C2CCCN2)nc1)c1nn[nH]n1 (stereo partly drawn) [Example 376, (2S)-4-methyl-2-[(1S)-2-[6-(2-pyrrolidin-2-ylphenoxy)pyridin-3-yl]-1-(2H-tetrazol-5-yl)ethyl]pentanoic acid] | 660 nM | 77 nM | 4.6 nM | 25 µM | 50 µM | 25 µM |
| CC(C)C[C@H](C(=O)O)[C@H](Cc1ccc(Oc2ccnc(N3CCNCC3)c2)nc1)c1nn[nH]n1 [Example 379, (2S)-4-methyl-2-[(1S)-2-{6-[(2-piperazin-1-ylpyridin-4-yl)oxy]pyridin-3-yl}-1-(2H-tetrazol-5-yl)ethyl]pentanoic acid] | 370 nM | 32 nM | 7.1 nM | 9.4 µM | 100 µM | 16 µM |
| CC(C)C[C@H](C(=O)O)[C@H](Cc1ccc(Oc2ccc(C(C)N)nc2)nc1)c1nn[nH]n1 (stereo partly drawn) [Example 380, (2S)-2-[(1S)-2-(6-{[6-(1-aminoethyl)pyridin-3-yl]oxy}pyridin-3-yl)-1-(2H-tetrazol-5-yl)ethyl]-4-methylpentanoic acid] | 64 nM | 12 nM | 2.4 nM | 4.7 µM | 50 µM | 4.7 µM |
| CC(C)C[C@H](C(=O)O)[C@H](Cc1ccc(Oc2ccccc2)nc1)c1nn[nH]n1 [Example 381, (2S)-4-methyl-2-[(1S)-2-(6-phenoxypyridin-3-yl)-1-(2H-tetrazol-5-yl)ethyl]pentanoic acid] | 86 nM | 24 nM | 4.1 nM | 9.4 µM | 75 µM | 4.7 µM |
| CC(C)C[C@H](C(=O)O)[C@H](Cc1ccc(Oc2cccc(C3CCCNC3)c2)nc1)c1nn[nH]n1 (stereo partly drawn) [Example 382, (2S)-4-methyl-2-[(1S)-2-[6-(3-piperidin-3-ylphenoxy)pyridin-3-yl]-1-(2H-tetrazol-5-yl)ethyl]pentanoic acid] | 170 nM | 140 nM | 34 nM | 12.5 µM | 75 µM | 12.5 µM |
| CC(C)C[C@H](C(=O)O)[C@H](Cc1ccc(Oc2ccc(CO)cc2)nc1)c1nn[nH]n1 [Example 383, (2S)-2-[(1S)-2-{6-[4-(hydroxymethyl)phenoxy]pyridin-3-yl}-1-(2H-tetrazol-5-yl)ethyl]-4-methylpentanoic acid] | 150 nM | 34 nM | 56 nM | 25 µM | 150 µM | 12.5 µM |
| CC(C)C[C@H](C(=O)O)[C@H](Cc1ccc(Oc2ccc(CC(C)(C)N)cc2)nc1)c1nn[nH]n1 [Example 386, (2S)-2-[(1S)-2-{6-[4-(2-amino-2-methylpropyl)phenoxy]pyridin-3-yl}-1-(2H-tetrazol-5-yl)ethyl]-4-methylpentanoic acid] | 180 nM | 120 nM | 100 nM | 25 µM | >200 µM | 12.5 µM |

Source: patent publication US9839642B2, “Beta-tetrazolyl-propionic acids as metallo-beta-lactamase inhibitors” (priority 2014, dated 2017)
